Measured values taken from the NIST ThermoML archive (doi:10.1016/j.fluid.2017.06.018).
Numbers after ± are expanded uncertainties.

Legend:
[1] = xn = mol fraction of the nth substance listed; settings: 100 kPa, Liquid; for viscosity: Falling or rolling sphere viscometry; for mass density: Vibrating tube method
[2] = refractive index (Na D-line) (dimensionless); xn = mol fraction of the nth substance listed; settings: 100 kPa, Liquid, Standard Abbe refractometry

NCCNCCO [N-(2-aminoethyl)ethanolamine] + NCCO
Settings	mass density, 298.15 K [kg/m3]	mass density, 303.15 K [kg/m3]	mass density, 308.15 K [kg/m3]	refractive index, 298.15 K	refractive index, 303.15 K	refractive index, 308.15 K	viscosity, 298.15 K [mPa·s]	viscosity, 303.15 K [mPa·s]	viscosity, 308.15 K [mPa·s]
[1], x2 = 0	1025.8 ± 2	1021.3 ± 2	1016.3 ± 2	–	–	–	98.62 ± 2.9	70.57 ± 1.6	53.11 ± 1.1
[1], x2 = 0.1072	1025.7 ± 2	1021.4 ± 2	1016.6 ± 2	–	–	–	95.09 ± 2.7	69.25 ± 1.6	52.77 ± 1.1
[1], x2 = 0.2634	1025.2 ± 2	1020.9 ± 2	1016.2 ± 2	–	–	–	90.58 ± 2.5	67.59 ± 1.6	52.68 ± 1.1
[1], x2 = 0.4233	1024.4 ± 2	1020.2 ± 2	1015.7 ± 2	–	–	–	78.29 ± 2	59.5 ± 1.3	46.92 ± 1.1
[1], x2 = 0.5481	1023.4 ± 2.1	1019.3 ± 2.1	1014.9 ± 2.1	–	–	–	64.72 ± 1.5	48.92 ± 1.1	38.49 ± 0.87
[1], x2 = 0.6305	1022.5 ± 2.1	1018.4 ± 2.1	1014.1 ± 2.1	–	–	–	53.12 ± 1.1	39.84 ± 0.91	31.01 ± 0.71
[1], x2 = 0.6851	1021.7 ± 2.1	1017.6 ± 2.1	1013.4 ± 2.1	–	–	–	44.75 ± 1	32.81 ± 0.75	25.15 ± 0.58
[1], x2 = 0.7988	1019.4 ± 2.1	1015.5 ± 2.1	1011.4 ± 2.1	–	–	–	27.93 ± 0.65	20.04 ± 0.46	14.71 ± 0.34
[1], x2 = 0.8459	1018.2 ± 2.1	1014.3 ± 2.1	1010.3 ± 2.1	–	–	–	22.36 ± 0.52	15.94 ± 0.37	11.31 ± 0.26
[1], x2 = 0.9377	1015.2 ± 2.1	1011.4 ± 2.1	1007.5 ± 2.1	–	–	–	17.18 ± 0.4	12.82 ± 0.3	9.55 ± 0.22
[2], x2 = 0	–	–	–	1.4843 ± 0.002	1.4827 ± 0.002	1.4811 ± 0.002	–	–	–
[2], x2 = 0.1005	–	–	–	1.4824 ± 0.002	1.481 ± 0.002	1.4796 ± 0.002	–	–	–
[2], x2 = 0.1993	–	–	–	1.4799 ± 0.002	1.4785 ± 0.002	1.4771 ± 0.002	–	–	–
[2], x2 = 0.299	–	–	–	1.4774 ± 0.002	1.476 ± 0.002	1.4745 ± 0.002	–	–	–
[2], x2 = 0.4047	–	–	–	1.4742 ± 0.002	1.4728 ± 0.002	1.4715 ± 0.002	–	–	–
[2], x2 = 0.5033	–	–	–	1.4714 ± 0.002	1.47 ± 0.002	1.4685 ± 0.002	–	–	–
[2], x2 = 0.5985	–	–	–	1.4683 ± 0.002	1.4668 ± 0.002	1.4652 ± 0.002	–	–	–
[2], x2 = 0.6981	–	–	–	1.4647 ± 0.002	1.4633 ± 0.002	1.462 ± 0.002	–	–	–
[2], x2 = 0.7985	–	–	–	1.4611 ± 0.0021	1.4598 ± 0.0021	1.4585 ± 0.0021	–	–	–
[2], x2 = 0.8996	–	–	–	1.4573 ± 0.0021	1.4559 ± 0.0021	1.4545 ± 0.0021	–	–	–

NCCNCCN [di(2-aminoethyl)amine] + NCCO
Settings	mass density, 298.15 K [kg/m3]	mass density, 303.15 K [kg/m3]	mass density, 308.15 K [kg/m3]	refractive index, 298.15 K	refractive index, 303.15 K	refractive index, 308.15 K	viscosity, 298.15 K [mPa·s]	viscosity, 303.15 K [mPa·s]	viscosity, 308.15 K [mPa·s]
[1], x2 = 0	945.8 ± 2.1	942.1 ± 2.1	937.8 ± 2.1	–	–	–	5.63 ± 0.13	4.5 ± 0.11	3.85 ± 0.09
[1], x2 = 0.1619	956.5 ± 2.1	953.1 ± 2.1	949.1 ± 2.1	–	–	–	8.28 ± 0.19	6.59 ± 0.15	5.38 ± 0.13
[1], x2 = 0.2973	964.6 ± 2.1	961.1 ± 2.1	957.1 ± 2.1	–	–	–	10.37 ± 0.24	8.33 ± 0.2	6.68 ± 0.16
[1], x2 = 0.4258	972.6 ± 2.1	969 ± 2.1	965.3 ± 2.1	–	–	–	12.15 ± 0.29	9.76 ± 0.23	7.8 ± 0.18
[1], x2 = 0.5307	979.4 ± 2.1	975.9 ± 2.1	972.3 ± 2.1	–	–	–	13.87 ± 0.33	11.18 ± 0.26	8.89 ± 0.21
[1], x2 = 0.6308	986.3 ± 2.1	982.8 ± 2.1	979.2 ± 2.1	–	–	–	15.47 ± 0.36	12.48 ± 0.29	9.99 ± 0.23
[1], x2 = 0.7174	992.7 ± 2.1	989.2 ± 2.1	985.6 ± 2.1	–	–	–	16.82 ± 0.39	13.6 ± 0.32	10.89 ± 0.26
[1], x2 = 0.798	998.7 ± 2.1	995.5 ± 2.1	992 ± 2.1	–	–	–	18.22 ± 0.43	14.73 ± 0.35	11.84 ± 0.28
[1], x2 = 0.879	1005.1 ± 2.1	1001.7 ± 2.1	998.5 ± 2.1	–	–	–	19.23 ± 0.45	15.49 ± 0.36	12.42 ± 0.29
[1], x2 = 0.9336	1008.9 ± 2.1	1005.6 ± 2.1	1002.4 ± 2.1	–	–	–	19.31 ± 0.45	15.49 ± 0.36	12.34 ± 0.29
[2], x2 = 0	–	–	–	1.4822 ± 0.0021	1.4808 ± 0.0021	1.4793 ± 0.0021	–	–	–
[2], x2 = 0.0989	–	–	–	1.4815 ± 0.0021	1.4802 ± 0.0021	1.4791 ± 0.0021	–	–	–
[2], x2 = 0.2021	–	–	–	1.4806 ± 0.0021	1.4791 ± 0.0021	1.4778 ± 0.0021	–	–	–
[2], x2 = 0.3013	–	–	–	1.4794 ± 0.0021	1.4778 ± 0.0021	1.4765 ± 0.0021	–	–	–
[2], x2 = 0.4007	–	–	–	1.4778 ± 0.0021	1.4764 ± 0.0021	1.4752 ± 0.0021	–	–	–
[2], x2 = 0.4984	–	–	–	1.4758 ± 0.0021	1.4743 ± 0.0021	1.4729 ± 0.0021	–	–	–
[2], x2 = 0.6007	–	–	–	1.4731 ± 0.0021	1.4717 ± 0.0021	1.4703 ± 0.0021	–	–	–
[2], x2 = 0.7027	–	–	–	1.4696 ± 0.0021	1.4683 ± 0.0021	1.467 ± 0.0021	–	–	–
[2], x2 = 0.8002	–	–	–	1.4657 ± 0.0021	1.4643 ± 0.0021	1.4631 ± 0.0021	–	–	–
[2], x2 = 0.8987	–	–	–	1.4608 ± 0.0021	1.4591 ± 0.0021	1.4577 ± 0.0021	–	–	–
